Paper PMC7044277 (Nature Communications, 2020)
Several values for one entry are separate records, joined by “and”; a condition that tells them apart may be missing. Equal values may be shown once.

Key:
Type in all cases: cell-based
Parameters in all cases: GPCRome screening signal at PTGIR / GPCRome screening signal at PTH1R / GPCRome screening signal at PTH2R / GPCRome screening signal at QRFP / GPCRome screening signal at RXFP2 / GPCRome screening signal at RXFP3 / GPCRome screening signal at RXFP4 / GPCRome screening signal at S1PR2 / GPCRome screening signal at S1PR3 / GPCRome screening signal at S1PR4 / GPCRome screening signal at S1PR5 / GPCRome screening signal at SCTR / GPCRome screening signal at SSTR2 / GPCRome screening signal at SSSTR / GPCRome screening signal at SSTR4 / GPCRome screening signal at SSTR5 / GPCRome screening signal at SUCNR1 / GPCRome screening signal at TA1 / GPCRome screening signal at TAAR2 / GPCRome screening signal at TAAR5 / GPCRome screening signal at TAAR6 / GPCRome screening signal at TAAR8 / GPCRome screening signal at TACR1 / GPCRome screening signal at TACR2 / GPCRome screening signal at TACR3 / GPCRome screening signal at TBXA2R / GPCRome screening signal at TSHR / GPCRome screening signal at UTS2R / GPCRome screening signal at VIPR2 / GPCRome screening signal at GPR68 no V2 Tail / GPCRome screening signal at GRM2 / GPCRome screening signal at GRM3: reference not given here
[1] = target: T1, 320 non-olfactory GPCRs (Homo sapiens, UniProt Q14416); settings: receptor GRM2
T1 construct: expressed in transfected cells; host or cells: HTLA cells
T1 sequence (Q14416 19-872): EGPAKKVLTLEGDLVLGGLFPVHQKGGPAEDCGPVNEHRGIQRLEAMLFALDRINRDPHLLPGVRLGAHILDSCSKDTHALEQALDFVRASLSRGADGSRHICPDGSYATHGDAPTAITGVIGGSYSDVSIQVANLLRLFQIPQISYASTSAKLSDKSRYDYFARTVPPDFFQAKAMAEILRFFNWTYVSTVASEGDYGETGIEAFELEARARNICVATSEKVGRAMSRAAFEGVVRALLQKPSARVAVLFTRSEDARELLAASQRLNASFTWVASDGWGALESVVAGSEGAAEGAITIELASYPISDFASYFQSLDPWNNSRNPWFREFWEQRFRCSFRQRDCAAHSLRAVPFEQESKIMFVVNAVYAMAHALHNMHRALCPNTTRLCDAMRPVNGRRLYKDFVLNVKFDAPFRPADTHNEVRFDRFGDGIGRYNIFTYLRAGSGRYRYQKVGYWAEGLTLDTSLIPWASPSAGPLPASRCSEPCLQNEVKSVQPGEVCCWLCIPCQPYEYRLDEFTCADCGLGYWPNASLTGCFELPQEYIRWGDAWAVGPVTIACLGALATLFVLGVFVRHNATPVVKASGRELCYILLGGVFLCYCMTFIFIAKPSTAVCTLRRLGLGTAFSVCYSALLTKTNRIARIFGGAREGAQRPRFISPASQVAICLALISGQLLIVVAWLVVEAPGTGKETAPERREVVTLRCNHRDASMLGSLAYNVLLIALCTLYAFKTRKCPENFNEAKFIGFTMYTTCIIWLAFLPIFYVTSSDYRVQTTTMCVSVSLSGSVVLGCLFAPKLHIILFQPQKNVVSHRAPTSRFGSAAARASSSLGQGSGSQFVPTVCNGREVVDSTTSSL

[2] = target: T2, 320 non-olfactory GPCRs (Homo sapiens, UniProt Q8WXD0); settings: receptor RXFP2
T2 construct: expressed in transfected cells; host or cells: HTLA cells
T2 sequence (Q8WXD0 whole entry): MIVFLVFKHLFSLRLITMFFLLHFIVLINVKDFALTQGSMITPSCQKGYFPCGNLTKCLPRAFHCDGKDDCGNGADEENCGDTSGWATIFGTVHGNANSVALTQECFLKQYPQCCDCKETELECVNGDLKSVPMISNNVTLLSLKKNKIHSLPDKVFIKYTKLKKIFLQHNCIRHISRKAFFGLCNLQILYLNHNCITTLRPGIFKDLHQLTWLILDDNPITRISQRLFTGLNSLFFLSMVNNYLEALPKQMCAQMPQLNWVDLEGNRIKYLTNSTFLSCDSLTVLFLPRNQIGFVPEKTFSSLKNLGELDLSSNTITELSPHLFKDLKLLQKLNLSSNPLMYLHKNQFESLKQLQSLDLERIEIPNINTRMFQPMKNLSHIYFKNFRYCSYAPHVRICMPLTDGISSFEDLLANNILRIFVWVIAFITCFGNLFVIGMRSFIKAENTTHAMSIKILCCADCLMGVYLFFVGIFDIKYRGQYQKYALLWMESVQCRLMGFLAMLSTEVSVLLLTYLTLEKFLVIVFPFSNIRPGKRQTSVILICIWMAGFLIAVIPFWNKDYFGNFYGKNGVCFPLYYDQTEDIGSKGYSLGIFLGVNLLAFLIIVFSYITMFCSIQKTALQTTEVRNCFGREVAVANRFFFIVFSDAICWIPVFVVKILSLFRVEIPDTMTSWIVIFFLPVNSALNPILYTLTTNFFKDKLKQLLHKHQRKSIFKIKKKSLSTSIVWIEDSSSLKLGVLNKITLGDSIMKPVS

[3] = target: T3, 320 non-olfactory GPCRs (Homo sapiens, UniProt Q96RJ0); settings: receptor TA1
T3 construct: expressed in transfected cells; host or cells: HTLA cells
T3 sequence (Q96RJ0 whole entry): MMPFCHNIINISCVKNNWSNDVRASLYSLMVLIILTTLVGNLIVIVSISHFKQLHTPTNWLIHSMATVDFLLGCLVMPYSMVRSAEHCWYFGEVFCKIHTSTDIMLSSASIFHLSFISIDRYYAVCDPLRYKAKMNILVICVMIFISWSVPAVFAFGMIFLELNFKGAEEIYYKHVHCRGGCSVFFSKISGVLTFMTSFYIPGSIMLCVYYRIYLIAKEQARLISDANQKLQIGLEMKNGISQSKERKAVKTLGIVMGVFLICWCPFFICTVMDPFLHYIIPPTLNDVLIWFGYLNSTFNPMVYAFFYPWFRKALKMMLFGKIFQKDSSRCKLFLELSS

[4] = target: 320 non-olfactory GPCRs (Homo sapiens, UniProt Q9H228); settings: receptor S1PR5
Chain of 320 non-olfactory GPCRs (Homo sapiens, UniProt Q9H228) (Q9H228 whole entry): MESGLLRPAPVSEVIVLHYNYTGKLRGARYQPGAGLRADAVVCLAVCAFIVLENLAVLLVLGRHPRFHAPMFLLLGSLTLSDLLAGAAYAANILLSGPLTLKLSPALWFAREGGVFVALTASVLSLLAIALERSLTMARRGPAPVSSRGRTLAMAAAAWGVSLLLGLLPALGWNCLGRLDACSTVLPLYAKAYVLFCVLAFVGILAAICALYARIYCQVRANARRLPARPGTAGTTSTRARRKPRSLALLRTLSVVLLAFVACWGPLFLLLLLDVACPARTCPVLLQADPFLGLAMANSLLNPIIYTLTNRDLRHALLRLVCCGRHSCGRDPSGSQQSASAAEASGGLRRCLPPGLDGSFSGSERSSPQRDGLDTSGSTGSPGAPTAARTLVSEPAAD

[5] = Fig_5f, single replicate values
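For GPCRome agonism screen response in this document: fold over basal response of each receptor without drug.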

Structure (SMILES)	GPCRome agonism screen response ([1]; replicate values, Fig_4g)	GPCRome agonism screen response ([2]; replicate values, Fig_4g)	GPCRome agonism screen response ([3]; replicate values, Fig_4g)	GPCRome agonism screen response ([4]; replicate values, Fig_4g)	GPCRome screening signal at GRM2 [1, 5]	GPCRome screening signal at RXFP2 [2, 5]	GPCRome screening signal at TA1 [3, 5]	GPCRome screening signal at S1PR5 [4, 5]
CCOc1cccc2cc(C(C)NCC3(O)CCCCC3)oc12 (centres unmarked) [O4LE6]	1.717 and 0.9934 and 0.846 and 0.4952	0.9912 and 0.8618 and 0.6803 and 0.6522	0.6778 and 0.9948 and 0.7841 and 0.8752	0.6595 and 0.787 and 0.6694 and 0.8628				
CCOc1ccccc1CCC(C)NCC1(O)CCCCC1.Cl (racemic) [Fig_5f]					0.9548 and 1.3016 and 1.1 and 0.9506	1.049 and 1.08 and 1.42 and 0.7752	0.8481 and 0.8735 and 0.8675 and 0.7534	0.8048 and 0.6191 and 0.7126 and 0.9361
